“And” between values parts separate entries of the source, which are not always exact repeats. Equal values may be shown once.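 Method: 48-hour compound exposure of cells in 96-well plates, five concentrations, linear interpolation of endpoints. The concentration for 50% growth inhibition is given as GI50. TGI denotes the concentration required for complete inhibition of growth.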

For one assay, the system named is NCI-H522 lung. Nature of the assay: DTP human tumour cell line panel, 48 h.
In general, TGI refers to the concentration giving total growth inhibition. `C=CCNC(=O)N(CCC)CCCCC(NC(C)=O)C(=O)NCc1ccccc1` (centres undefined) registered a TGI greater than 100 µM.

`COC(=O)/C(C=O)=C/Sc1ccccc1` gave a concentration for total growth inhibition (TGI) of 24 µM.

With `Nc1ccn(C2(CO)C=C(CO)C(O)C2O)c(=O)n1` (centres undefined), the TGI was greater than 25.8 µM.

As for `C=C1C[C@]23CCC4C(C)(C)C(=O)CC[C@]4(C)C2C[C@H]1C(O)C3=O` (some centres undefined), the TGI was greater than 75 µM.

`CC1(C)O/C(=C\c2ccccc2)C(=O)/C(=C/c2ccccc2)O1` came in with a TGI of 22.5 µM.

For `O=C1CC2C(=O)N(Cc3ccccc3)C1C=C2S(=O)(=O)c1ccccc1` (centres undefined), the total growth inhibition concentration (TGI) is greater than 100 µM.

One may read the GI50 as the concentration giving 50% growth inhibition. Consider `N.N.N.N.[Cl-].[Co+3].[N-]=[N+]=[N-].[N-]=[N+]=[N-]`, for which the GI50 was greater than 100 µM and the TGI is greater than 100 µM.

Molecule `O=c1[nH]c2cc(Cl)ccc2nc1/C(=N\O)C(O)c1ccc(Cl)cc1Cl` (centres undefined) returned a total growth inhibition concentration (TGI) greater than 100 µM.

The molecule `CC(C)CCCC(C)[C@H]1CCC2[C@H]3C(CC[C@@]21C)[C@@]1(C)CCC=C[C@]12C[C@@H]2[C@@H]3O` (some centres undefined) displayed a total growth inhibition concentration (TGI) greater than 100 µM.

`Nc1nc(CCl)nc(Nc2ccccc2)n1` registered a TGI of 3.27 µM.

`CN[C@@H](C)[C@H](NC)c1ccccc1` returned a concentration for total growth inhibition (TGI) greater than 100 µM.

Molecule `C=C1C(=O)O[C@H]2/C=C(/C)C3=CC(=O)[C@@](C)(C[C@@H](OC(=O)/C(C)=C\C)C12)O3` (some centres undefined) showed a total growth inhibition concentration (TGI) of 0.605 µM.

The molecule `O=S1OC2(c3ccccc3-c3ccccc32)c2ccccc21` (centres undefined) displayed a concentration for total growth inhibition (TGI) greater than 100 µM.

The next assay deals with IGROV1 ovarian. Nature of the assay: DTP human tumour cell line panel, 48 h.
`COc1cc2ccc3c4cc(OC)c(OC(C)C)cc4cnc3c2cc1OC` registered a TGI greater than 100 µM.

As to `CN1NC(=Nc2ccccc2)Sc2c1cnn(-c1ccccc1)c2=O`, the TGI was greater than 100 µM.

`C1C[OH+]CCNCC[OH+]CC[OH+]CCN1.[Cl-].[Pt+4]`: the GI50 is greater than 100 µM and the concentration for total growth inhibition (TGI) was greater than 100 µM.

Molecule `CC(=O)c1sc(-c2nc(C)c(C(=O)/C=C\c3ccc(/C=C\C(=O)c4sc(-c5nc(C)c(C(C)=O)s5)nc4C)cc3)s2)nc1C` gave a TGI greater than 100 µM.

Take `COC(=O)/C(C)=C/[N+](=O)[O-]`: the TGI amounted to 44.1 µM.

In the case of `Cc1ccc(C2(O)CC(c3ccc([N+](=O)[O-])o3)=NN2C(=O)COc2ccc(Cl)cc2)cc1` (centres undefined), the TGI was greater than 76.4 µM.

`CC1=NN(C(=O)CC(=O)N(C(=O)c2ccccc2Cl)c2ccc(C)cc2)C(=O)C1N=Nc1ccc([N+](=O)[O-])cc1` (centres undefined) gave a total growth inhibition concentration (TGI) greater than 100 µM.

In turn, `COc1cccc(-n2c3nc(=O)n(C)c(=O)c-3nc3ccccc32)c1` gave a TGI of 59.6 µM.

For `CC(C)(C=O)CC(C#N)/C(=N\NC(N)=O)C(=O)Nc1ccccc1C(N)=O` (centres undefined), the TGI was greater than 100 µM.

As to `Cc1cc(C)c(C2[C@H]3C(=O)N(c4ccc(Cc5ccc(N6C(=O)[C@@H]7ON(c8ccccc8)C(c8c(C)cc(C)cc8C)[C@@H]7C6=O)cc5)cc4)C(=O)[C@H]3ON2c2ccccc2)c(C)c1` (some centres undefined), the concentration for total growth inhibition (TGI) is greater than 100 µM.

Consider `COC(=O)OCC1OC(N2C(=O)NC(=O)C(Br)C2N=[N+]=[N-])CC1OC(=O)OC` (centres undefined), for which the total growth inhibition concentration (TGI) is greater than 100 µM.

Regarding `CC12CCCCC1(C)C2Sc1ccccc1` (centres undefined), the total growth inhibition concentration (TGI) was greater than 100 µM.

Take `CCCCOC(=O)NC(=O)c1cn(CCCOC(=O)NCCCCCCNC(=O)OCCCn2cc(C(=O)NC(=O)OCCCC)c(=O)[nH]c2=O)c(=O)[nH]c1=O`: the TGI was greater than 100 µM.

For `C[C@@]12CCCc3coc(c31)C(=O)c1cc3c(cc12)C(=O)C=CC3=O`, the GI50 is greater than 1 µM; the total growth inhibition concentration (TGI) is > 1 µM and 37.1 µM.

Turning to `COc1cc(C)c2c(c1C)OC(=O)c1c(C)c(Cl)c(O)c(C=O)c1O2`, the TGI amounted to 72.7 µM.

As for `C=CCNC(=O)N(CCC)CCCCC(NC(C)=O)C(=O)NCc1ccccc1` (centres undefined), the TGI was greater than 100 µM.

As for `COC(=O)/C(C=O)=C/Sc1ccccc1`, the total growth inhibition concentration (TGI) is 28.8 µM.

The molecule `Nc1ccn(C2(CO)C=C(CO)C(O)C2O)c(=O)n1` (centres undefined) registered a TGI greater than 25.8 µM.

For the molecule `C=C1C[C@]23CCC4C(C)(C)C(=O)CC[C@]4(C)C2C[C@H]1C(O)C3=O` (some centres undefined), the TGI is greater than 75 µM.

For the molecule `CC1(C)O/C(=C\c2ccccc2)C(=O)/C(=C/c2ccccc2)O1`, the total growth inhibition concentration (TGI) is greater than 100 µM.

`O=C1CC2C(=O)N(Cc3ccccc3)C1C=C2S(=O)(=O)c1ccccc1` (centres undefined) showed a concentration for total growth inhibition (TGI) greater than 100 µM.

As for `N.N.N.N.[Cl-].[Co+3].[N-]=[N+]=[N-].[N-]=[N+]=[N-]`, the GI50 is greater than 100 µM and the TGI is greater than 100 µM.

`O=c1[nH]c2cc(Cl)ccc2nc1/C(=N\O)C(O)c1ccc(Cl)cc1Cl` (centres undefined) yielded a TGI greater than 100 µM.

For the molecule `CC(C)CCCC(C)[C@H]1CCC2[C@H]3C(CC[C@@]21C)[C@@]1(C)CCC=C[C@]12C[C@@H]2[C@@H]3O` (some centres undefined), the total growth inhibition concentration (TGI) is greater than 100 µM.

As to `Nc1nc(CCl)nc(Nc2ccccc2)n1`, the TGI was 36.1 µM.

The molecule `CN[C@@H](C)[C@H](NC)c1ccccc1` had a TGI greater than 100 µM.

Regarding `C=C1C(=O)O[C@H]2/C=C(/C)C3=CC(=O)[C@@](C)(C[C@@H](OC(=O)/C(C)=C\C)C12)O3` (some centres undefined), the TGI worked out at 4.97 µM.

As for `O=S1OC2(c3ccccc3-c3ccccc32)c2ccccc21` (centres undefined), the concentration for total growth inhibition (TGI) is greater than 100 µM.

The test system of the next assay is SK-MEL-5 melanoma. In words: DTP human tumour cell line panel, 48 h.
`COc1cc2ccc3c4cc(OC)c(OC(C)C)cc4cnc3c2cc1OC`: the TGI was greater than 100 µM.

`C1C[OH+]CCNCC[OH+]CC[OH+]CCN1.[Cl-].[Pt+4]`: the GI50 was greater than 100 µM and the total growth inhibition concentration (TGI) was greater than 100 µM.

`COC(=O)/C(C)=C/[N+](=O)[O-]` came in with a TGI of 47.3 µM.

The molecule `Cc1ccc(C2(O)CC(c3ccc([N+](=O)[O-])o3)=NN2C(=O)COc2ccc(Cl)cc2)cc1` (centres undefined) had a TGI of 6.6 µM.

`CC1=NN(C(=O)CC(=O)N(C(=O)c2ccccc2Cl)c2ccc(C)cc2)C(=O)C1N=Nc1ccc([N+](=O)[O-])cc1` (centres undefined): the concentration for total growth inhibition (TGI) was greater than 100 µM.

Consider `COc1cccc(-n2c3nc(=O)n(C)c(=O)c-3nc3ccccc32)c1`, for which the TGI is 13.8 µM.

`CC(C)(C=O)CC(C#N)/C(=N\NC(N)=O)C(=O)Nc1ccccc1C(N)=O` (centres undefined): the concentration for total growth inhibition (TGI) was greater than 100 µM.

The molecule `Cc1cc(C)c(C2[C@H]3C(=O)N(c4ccc(Cc5ccc(N6C(=O)[C@@H]7ON(c8ccccc8)C(c8c(C)cc(C)cc8C)[C@@H]7C6=O)cc5)cc4)C(=O)[C@H]3ON2c2ccccc2)c(C)c1` (some centres undefined) returned a TGI greater than 100 µM.

In the case of `COC(=O)OCC1OC(N2C(=O)NC(=O)C(Br)C2N=[N+]=[N-])CC1OC(=O)OC` (centres undefined), the total growth inhibition concentration (TGI) is greater than 100 µM.

`CC12CCCCC1(C)C2Sc1ccccc1` (centres undefined) had a total growth inhibition concentration (TGI) greater than 63.5 µM.

The molecule `CCCCOC(=O)NC(=O)c1cn(CCCOC(=O)NCCCCCCNC(=O)OCCCn2cc(C(=O)NC(=O)OCCCC)c(=O)[nH]c2=O)c(=O)[nH]c1=O` came in with a TGI greater than 100 µM.

Turning to `C[C@@]12CCCc3coc(c31)C(=O)c1cc3c(cc12)C(=O)C=CC3=O`, the GI50 was greater than 1 µM; the TGI was > 1 µM and 30.9 µM.

On to `COc1cc(C)c2c(c1C)OC(=O)c1c(C)c(Cl)c(O)c(C=O)c1O2`, for which the total growth inhibition concentration (TGI) is greater than 100 µM.

`C=CCNC(=O)N(CCC)CCCCC(NC(C)=O)C(=O)NCc1ccccc1` (centres undefined): the TGI is greater than 100 µM.

Regarding `COC(=O)/C(C=O)=C/Sc1ccccc1`, the TGI amounted to 85.2 µM.

`Nc1ccn(C2(CO)C=C(CO)C(O)C2O)c(=O)n1` (centres undefined) registered a TGI greater than 25.8 µM.

Take `C=C1C[C@]23CCC4C(C)(C)C(=O)CC[C@]4(C)C2C[C@H]1C(O)C3=O` (some centres undefined): the concentration for total growth inhibition (TGI) is greater than 75 µM.

Values taken from PubChem BioAssay (NCI).
